Measured values: patent publication US12668599B2, “Heterobifunctional compounds and methods of treating disease” (Halda Therapeutics OpCo, Inc., priority 2023, dated 2026)

How the values were obtained:
[1] = tested on: androgen receptor WT, T878A, L702H and H875Y and BRD4 protein; experiment: Ternary complex formation in TRex293 cells with doxycycline inducible androgen receptor (AR capture / HRP-BRD4 antibody ELISA); type: cell-based; details: Trex293 cells engineered to express wtAR and the T878A, L702H and H875Y AR mutants, 1 hour treatment, FIG. 2
Method: Compound II-5 was tested for ability to form a ternary complex containing Compound II-5, androgen receptor, and bromodomain-containing protein 4 (BRD4) protein using TRex293 cells induced to express elevated levels of androgen receptor.
TRex293 cells expressing doxycycline inducible androgen receptor WT, T878A, L702H and H875Y were generated and cultured in DMEM medium supplemented with 10% heat inactivated fetal bovine serum, and 1% pen-strep (culture medium). 25,000 cells were seeded per well in 100 μL of phenol red free DMEM containing 10% CSS, 1% pen strep, and 10 ng/mL doxycycline in a clear 96-well poly-D-lysine coated plate. Plates were incubated at 37° C. Black, opaque 96-well MaxiSorp plates were coated with 50 μL of androgen receptor antibody diluted in phosphate buffered saline (PBS). The coated plates were sealed and placed at 4° C. overnight. Plates coated with androgen receptor antibody were washed three times with 200 μL 1× tris -buffered saline plus 0.1% Tween20 (TBST), then blocked with 200 μL of 3% bovine serum albumin in TBST for 1 hour at room temperature. Test compound titrations were diluted in culture medium. 100 μL of the test compound/media mixture was added to the cell plate. After treatment, plates were incubated for 1 hour. Then, cells were washed once with 250 μL 1× PBS. […] Fluorescent endpoint read was conducted on a SpectraMax plate reader.

[2] = tested on: T-Rex 293 cell line SC3 cells having increased expression of androgen receptor protein due to exposure to doxycycline; experiment: Cellular growth inhibition, T-Rex 293 SC3 cells with doxycycline-induced androgen receptor (CellTiter-Glo 2.0, 72 hours); type: cell-based

## COc1cc(O[C@H]2C(C)(C)[C@H](NC(=O)c3cnc(N4CCC5(CC4)CC(Oc4ccc(C6=N[C@@H](Cc7ncco7)c7nnc(C)n7-c7sc(C)c(C)c76)cc4)C5)nc3)C2(C)C)ccc1C#N [II-5, N-[(1r,3r)-3-(4-cyano-3-methoxy-phenoxy)-2,2,4,4-tetramethyl-cyclobutyl]-2-[2-[4-[(9S)-4,5,13-trimethyl-9-(oxazol-2-ylmethyl)-3-thia-1,8,11,12-tetrazatricyclo[8.3.0.0^2,6]trideca-2 (6),4,7,10,12-pentaen-7-yl]phenoxy]-7-azaspiro[3.5]nonan-7-yl]pyrimidine-5-carboxamide]
[1]
  ternary complex formation between Compound II-5, androgen receptor, and BRD4: detected
[2]; GI50 of the top compound in the pair divided by GI50 of the lower compound, T-Rex 293 SC3 cells with doxycycline-induced androgen receptor
  Ratio of GI50's: 1
[2]; T-Rex 293 SC3 cells with 10 ng/ml doxycycline (increased androgen receptor expression), 72 hours, CellTiter-Glo 2.0
  GI50: < 500 nM
